The values below come from ChEMBL document CHEMBL4028852, “Design of a Chemical Probe for the Bromodomain and Plant Homeodomain Finger-Containing (BRPF) Family of Proteins” (J Med Chem, 2017).

Bounds are passed on as bounds.

A short description of data set [1]: Inhibition of cell proliferation of human NCI60 cells at 10 uM after 48 hrs by SRB assay. The data set is classed as functional. As to conditions: NCI60, 48 h.
Data set [2] can be described thus: Fraction of drug absorbed in CD1 mouse at 3 mg/kg, po by UPLC-MS/MS analysis. The data set is classed as ADME, organism-based. The following applies: in vivo, read-out: Fabs.
A short description of data set [3]: Inhibition of cell proliferation of human HRA19 cells after 72 hrs by MTS assay. As to conditions: HRA19, 72 h. It counts as functional. For orientation: Tetrazolium dyes change colour on reduction, which living cells bring about.
The next data set has as its target T1, Kir2.1 (Homo sapiens, UniProt P63252).
T1 sequence (P63252 whole entry): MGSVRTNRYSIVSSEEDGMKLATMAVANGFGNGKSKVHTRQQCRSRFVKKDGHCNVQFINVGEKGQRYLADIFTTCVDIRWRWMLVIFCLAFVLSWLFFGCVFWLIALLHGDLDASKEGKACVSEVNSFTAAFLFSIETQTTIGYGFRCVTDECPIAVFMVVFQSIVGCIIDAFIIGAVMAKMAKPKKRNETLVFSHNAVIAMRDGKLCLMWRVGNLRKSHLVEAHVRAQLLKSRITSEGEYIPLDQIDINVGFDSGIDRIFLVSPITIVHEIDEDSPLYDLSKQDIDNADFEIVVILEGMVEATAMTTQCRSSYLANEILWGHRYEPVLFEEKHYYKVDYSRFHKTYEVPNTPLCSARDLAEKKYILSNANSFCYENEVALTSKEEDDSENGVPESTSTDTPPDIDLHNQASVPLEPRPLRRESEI
In words: Inhibition of Kir2.1 (unknown origin) at 30 uM.

Data set [4] can be described thus: Apparent permeability across apical to basolateral side in human Caco2 cells at 10 uM after 2 hrs by LC-MS/MS analysis. The data set is classed as ADME, cell-based. The following applies: Caco-2. A general note: Caco-2 monolayers are a common model of the intestinal barrier.
Data set [5] concerns the target T2, Transcription intermediary factor 1-alpha (Homo sapiens, UniProt O15164).
T2 sequence (O15164 whole entry): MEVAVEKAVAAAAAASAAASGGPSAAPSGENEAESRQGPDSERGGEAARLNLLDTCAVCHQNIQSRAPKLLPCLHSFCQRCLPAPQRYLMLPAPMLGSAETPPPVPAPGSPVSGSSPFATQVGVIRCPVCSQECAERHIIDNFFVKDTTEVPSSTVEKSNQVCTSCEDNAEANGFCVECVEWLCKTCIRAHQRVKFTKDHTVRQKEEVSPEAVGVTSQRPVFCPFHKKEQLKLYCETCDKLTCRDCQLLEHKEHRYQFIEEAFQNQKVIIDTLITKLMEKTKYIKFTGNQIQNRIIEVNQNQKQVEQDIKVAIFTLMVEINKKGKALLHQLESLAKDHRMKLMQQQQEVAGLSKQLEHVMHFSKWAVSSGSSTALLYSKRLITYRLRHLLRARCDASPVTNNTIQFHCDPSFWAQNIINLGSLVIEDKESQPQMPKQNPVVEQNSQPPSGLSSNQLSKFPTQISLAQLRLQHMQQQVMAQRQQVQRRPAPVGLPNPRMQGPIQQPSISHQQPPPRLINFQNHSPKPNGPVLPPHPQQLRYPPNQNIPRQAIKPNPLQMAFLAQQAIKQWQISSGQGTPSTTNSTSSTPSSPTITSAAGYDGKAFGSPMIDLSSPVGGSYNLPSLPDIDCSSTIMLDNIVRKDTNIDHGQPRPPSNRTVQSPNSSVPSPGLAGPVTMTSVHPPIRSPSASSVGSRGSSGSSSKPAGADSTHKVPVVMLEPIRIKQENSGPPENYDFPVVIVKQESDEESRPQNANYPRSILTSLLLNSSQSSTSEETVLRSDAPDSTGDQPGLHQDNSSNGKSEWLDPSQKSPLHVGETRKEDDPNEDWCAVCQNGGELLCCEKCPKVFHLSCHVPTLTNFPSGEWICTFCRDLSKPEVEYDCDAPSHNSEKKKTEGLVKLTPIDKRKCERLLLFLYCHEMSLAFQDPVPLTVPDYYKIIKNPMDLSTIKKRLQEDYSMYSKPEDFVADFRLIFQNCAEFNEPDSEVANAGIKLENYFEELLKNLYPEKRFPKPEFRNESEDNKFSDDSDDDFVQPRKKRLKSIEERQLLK
Put plainly: Inhibition of TRIM24 (unknown origin) using tetra-acetylated histone 4/ mono-acetylated K14 histone 3 as substrate after 30 mins by alphascreen assay. Background: In Alpha technology, singlet oxygen from a donor bead excites a nearby acceptor bead.

Data set [6] relates to Liver. In words: Metabolic stability in mouse liver microsomes by UPLC-MS/MS analysis. It counts as ADME, microsome.
The target of a further data set is Cav1.2 (Homo sapiens, UniProt Q13936). Put plainly: Inhibition of Cav1.2 (unknown origin) at 30 uM.
A further data set has as its target hERG (Homo sapiens, UniProt Q12809). Put plainly: Inhibition of human ERG at 30 uM.
Data set [7] relates to Liver. In words: Metabolic stability in human liver microsomes by UPLC-MS/MS analysis. It counts as ADME, microsome.
The next data set concerns DMS-114. In words: Inhibition of cell proliferation of human DMS114 cells after 72 hrs by MTS assay. The data set is classed as functional. The following applies: DMS-114, 72 h.
A further data set concerns the target Nav1.5 (Homo sapiens, UniProt Q14524). Put plainly: Inhibition of Nav1.5 (unknown origin) at 30 uM.

Sequence of hERG (Q12809 whole entry): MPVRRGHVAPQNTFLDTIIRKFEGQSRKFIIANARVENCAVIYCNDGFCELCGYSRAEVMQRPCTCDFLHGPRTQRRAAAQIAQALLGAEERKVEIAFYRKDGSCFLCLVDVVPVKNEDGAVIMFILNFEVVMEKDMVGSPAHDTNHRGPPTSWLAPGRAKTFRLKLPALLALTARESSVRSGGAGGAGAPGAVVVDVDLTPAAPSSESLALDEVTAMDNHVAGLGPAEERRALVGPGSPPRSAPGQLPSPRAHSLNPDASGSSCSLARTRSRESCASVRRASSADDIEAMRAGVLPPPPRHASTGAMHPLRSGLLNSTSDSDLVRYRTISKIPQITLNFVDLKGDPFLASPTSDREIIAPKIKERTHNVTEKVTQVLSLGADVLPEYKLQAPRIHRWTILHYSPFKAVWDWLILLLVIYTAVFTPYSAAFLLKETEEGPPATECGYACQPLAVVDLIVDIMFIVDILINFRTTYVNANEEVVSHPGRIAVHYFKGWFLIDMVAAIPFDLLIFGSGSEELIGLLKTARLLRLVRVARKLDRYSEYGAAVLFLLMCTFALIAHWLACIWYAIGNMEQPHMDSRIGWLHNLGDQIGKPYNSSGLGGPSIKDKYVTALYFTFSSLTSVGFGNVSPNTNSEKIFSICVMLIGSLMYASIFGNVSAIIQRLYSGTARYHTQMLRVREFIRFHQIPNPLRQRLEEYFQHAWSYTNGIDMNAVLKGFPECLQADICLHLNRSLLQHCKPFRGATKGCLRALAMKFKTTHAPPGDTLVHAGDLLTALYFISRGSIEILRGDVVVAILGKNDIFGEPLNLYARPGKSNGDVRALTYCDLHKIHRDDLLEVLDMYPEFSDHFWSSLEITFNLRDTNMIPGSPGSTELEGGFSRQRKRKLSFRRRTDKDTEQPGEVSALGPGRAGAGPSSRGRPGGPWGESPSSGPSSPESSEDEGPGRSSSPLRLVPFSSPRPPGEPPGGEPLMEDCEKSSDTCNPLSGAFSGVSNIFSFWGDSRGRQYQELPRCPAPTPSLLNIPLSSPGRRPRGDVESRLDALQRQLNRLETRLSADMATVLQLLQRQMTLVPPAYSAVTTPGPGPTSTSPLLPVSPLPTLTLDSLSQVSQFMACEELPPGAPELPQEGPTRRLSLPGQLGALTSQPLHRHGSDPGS
Sequence of Nav1.5 (Q14524 whole entry): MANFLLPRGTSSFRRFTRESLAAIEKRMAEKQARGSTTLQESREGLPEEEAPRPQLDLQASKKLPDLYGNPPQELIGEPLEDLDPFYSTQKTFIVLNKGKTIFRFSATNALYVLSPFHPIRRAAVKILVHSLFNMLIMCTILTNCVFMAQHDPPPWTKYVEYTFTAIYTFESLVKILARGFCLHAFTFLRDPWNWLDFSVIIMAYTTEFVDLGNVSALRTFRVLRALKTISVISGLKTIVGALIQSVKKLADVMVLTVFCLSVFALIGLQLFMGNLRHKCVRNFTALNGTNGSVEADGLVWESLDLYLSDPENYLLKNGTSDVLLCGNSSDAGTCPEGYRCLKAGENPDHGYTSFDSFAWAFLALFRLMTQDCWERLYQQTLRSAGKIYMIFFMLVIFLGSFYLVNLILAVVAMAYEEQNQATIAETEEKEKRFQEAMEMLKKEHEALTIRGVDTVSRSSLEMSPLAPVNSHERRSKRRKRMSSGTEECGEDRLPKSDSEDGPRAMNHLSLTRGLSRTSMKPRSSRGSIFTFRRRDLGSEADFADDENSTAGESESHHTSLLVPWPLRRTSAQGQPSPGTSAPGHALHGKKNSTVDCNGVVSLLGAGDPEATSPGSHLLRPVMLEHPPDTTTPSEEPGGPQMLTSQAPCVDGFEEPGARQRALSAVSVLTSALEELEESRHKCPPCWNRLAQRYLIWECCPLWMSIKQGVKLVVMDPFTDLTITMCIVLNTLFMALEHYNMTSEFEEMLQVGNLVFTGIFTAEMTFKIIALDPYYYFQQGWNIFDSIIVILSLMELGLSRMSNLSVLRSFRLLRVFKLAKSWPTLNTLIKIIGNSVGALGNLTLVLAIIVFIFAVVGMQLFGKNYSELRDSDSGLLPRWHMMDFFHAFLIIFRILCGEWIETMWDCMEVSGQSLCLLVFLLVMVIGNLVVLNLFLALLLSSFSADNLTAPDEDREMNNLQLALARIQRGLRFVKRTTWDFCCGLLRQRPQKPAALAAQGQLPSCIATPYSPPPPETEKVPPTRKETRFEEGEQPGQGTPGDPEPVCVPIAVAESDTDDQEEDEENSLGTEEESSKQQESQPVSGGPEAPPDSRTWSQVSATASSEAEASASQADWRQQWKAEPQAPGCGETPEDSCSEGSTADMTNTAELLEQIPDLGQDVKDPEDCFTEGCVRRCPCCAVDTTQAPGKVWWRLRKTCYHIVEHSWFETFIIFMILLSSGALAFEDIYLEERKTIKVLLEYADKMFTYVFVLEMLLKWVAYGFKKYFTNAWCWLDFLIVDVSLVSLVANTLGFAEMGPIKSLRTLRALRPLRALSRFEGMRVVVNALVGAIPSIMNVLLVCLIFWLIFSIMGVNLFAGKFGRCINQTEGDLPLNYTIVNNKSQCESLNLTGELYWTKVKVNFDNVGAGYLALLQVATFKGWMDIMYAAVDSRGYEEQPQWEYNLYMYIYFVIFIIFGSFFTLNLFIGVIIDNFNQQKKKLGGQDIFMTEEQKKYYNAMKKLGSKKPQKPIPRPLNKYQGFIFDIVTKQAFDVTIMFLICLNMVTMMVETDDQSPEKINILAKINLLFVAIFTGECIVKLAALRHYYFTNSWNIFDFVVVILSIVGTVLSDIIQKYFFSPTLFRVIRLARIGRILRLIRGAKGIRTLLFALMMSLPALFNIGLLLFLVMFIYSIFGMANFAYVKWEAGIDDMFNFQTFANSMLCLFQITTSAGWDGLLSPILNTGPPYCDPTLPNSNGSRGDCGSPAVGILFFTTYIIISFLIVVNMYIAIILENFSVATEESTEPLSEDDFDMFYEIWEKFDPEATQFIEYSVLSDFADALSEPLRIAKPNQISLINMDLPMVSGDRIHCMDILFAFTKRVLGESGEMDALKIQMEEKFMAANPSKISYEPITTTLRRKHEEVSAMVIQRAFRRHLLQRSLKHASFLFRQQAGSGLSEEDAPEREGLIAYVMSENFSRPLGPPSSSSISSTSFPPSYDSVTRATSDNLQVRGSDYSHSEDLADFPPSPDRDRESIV

Consider `COc1cc(C#N)ccc1S(=O)(=O)Nc1ccc2c(c1)cc(C)c(=O)n2C`, for which, in [1], the inhibition (commonly the relative decrease from the control value, in per cent) at 10 µM was < 25%. The Fa in [2] worked out at 35%. The GI50 (commonly the concentration at which growth is held to half of that of the control) in data set [3] was 15.6 µM; with DMS-114, 14.7 µM. The inhibition at 30 µM against Kir2.1, against Cav1.2, on hERG and at Nav1.5 was < 40% each time. Further, in data set [4], the Papp A→B (as a rule, the apparent permeability from the apical to the basolateral side of a cell layer) at 2 h, 10 µM was found to be 11 ×10⁻⁶ cm/s. Moreover, the IC50 (as a rule, the concentration at which inhibition is half-maximal) in data set [5] is > 10 µM. Also, the Stability result in the data set on Liver [6] and in the data set on Liver [7] was “Stable” in each case.
